Measured values taken from ChEMBL document CHEMBL4261615, “Design, synthesis, biological evaluation and cellular imaging of imidazo[4,5-b]pyridine derivatives as potent and selective TAM inhibitors” (Bioorg Med Chem, 2018).
Calls of active or inactive are those of the source. No cut-off for these calls is given here.

Tests used:
[1] = target: T1, Tyrosine-protein kinase Mer (Homo sapiens) (UniProt Q12866); assay: Inhibition of recombinant GST-tagged human Mer (578 to 872 residues) cytoplasmic domain expressed in Baculovirus system using poly (Glu-Ala-Tyr) peptide as substrate after 1.5 hrs by ELISA
T1 sequence (whole entry): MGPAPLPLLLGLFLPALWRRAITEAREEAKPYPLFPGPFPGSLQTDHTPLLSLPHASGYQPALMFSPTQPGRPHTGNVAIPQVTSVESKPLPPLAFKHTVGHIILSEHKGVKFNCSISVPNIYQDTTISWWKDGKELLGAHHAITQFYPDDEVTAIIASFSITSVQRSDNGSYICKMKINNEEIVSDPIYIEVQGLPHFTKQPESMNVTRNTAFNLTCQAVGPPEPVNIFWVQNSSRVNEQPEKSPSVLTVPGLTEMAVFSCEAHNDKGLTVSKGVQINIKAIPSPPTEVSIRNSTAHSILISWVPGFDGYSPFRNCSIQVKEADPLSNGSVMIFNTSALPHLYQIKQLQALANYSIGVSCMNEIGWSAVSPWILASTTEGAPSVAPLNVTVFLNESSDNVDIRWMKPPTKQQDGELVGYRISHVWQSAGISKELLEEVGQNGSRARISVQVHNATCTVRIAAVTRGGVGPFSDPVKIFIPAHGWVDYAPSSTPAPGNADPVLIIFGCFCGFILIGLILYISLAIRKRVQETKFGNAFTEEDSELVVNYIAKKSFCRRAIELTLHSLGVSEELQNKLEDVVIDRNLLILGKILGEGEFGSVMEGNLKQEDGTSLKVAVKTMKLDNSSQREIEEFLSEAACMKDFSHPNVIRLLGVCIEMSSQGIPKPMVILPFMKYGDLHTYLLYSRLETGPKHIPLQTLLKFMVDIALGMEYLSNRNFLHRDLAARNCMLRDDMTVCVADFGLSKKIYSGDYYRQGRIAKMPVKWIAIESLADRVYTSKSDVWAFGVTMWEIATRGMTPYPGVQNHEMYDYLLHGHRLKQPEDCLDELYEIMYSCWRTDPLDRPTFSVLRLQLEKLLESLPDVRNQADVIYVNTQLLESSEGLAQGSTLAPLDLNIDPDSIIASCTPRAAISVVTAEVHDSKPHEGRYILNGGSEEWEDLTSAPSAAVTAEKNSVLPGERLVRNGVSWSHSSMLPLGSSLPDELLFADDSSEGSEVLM

[2] = target: Serine/threonine-protein kinase B-raf (Homo sapiens) (UniProt P15056); assay: Binding affinity to wild-type human partial length BRAF (S429 to E741 residues) expressed in mammalian expression system assessed as fraction of unbound kinase to substrate at 10 uM after 1 hr by KinomeScan assay
[3] = Solubility of the compound in 0.2% DMSO; format: physicochemical
[4] = Drug localization in cytoplasm of human A549 cells at 10 uM after 24 hrs by NanoSIMS analysis; format: ADME, subcellular; settings: a549, 24 h
[5] = Drug localization in nucleus of human MGHU3 cells at 10 uM after 24 hrs by NanoSIMS analysis; format: ADME, subcellular; settings: mghu3, 24 h
[6] = Drug localization in nucleus of human A549 cells at 10 uM after 24 hrs by NanoSIMS analysis; format: ADME, subcellular; settings: a549, 24 h
Homo sapiens [7] = species: Homo sapiens; assay: Selectivity ratio of IC50 for recombinant GST-tagged human Mer (578 to 872 residues) cytoplasmic domain to IC50 for recombinant His-tagged human Axl (473 to end residues) cytoplasmic domain
Homo sapiens [8] = species: Homo sapiens; assay: Selectivity ratio of IC50 for recombinant GST-tagged human Tyro3 (451 to 890 residues) cytoplasmic domain to IC50 for recombinant His-tagged human Axl (473 to end residues) cytoplasmic domain

Chain of Serine/threonine-protein kinase B-raf (Homo sapiens) (P15056 whole entry, the tested form may be a part): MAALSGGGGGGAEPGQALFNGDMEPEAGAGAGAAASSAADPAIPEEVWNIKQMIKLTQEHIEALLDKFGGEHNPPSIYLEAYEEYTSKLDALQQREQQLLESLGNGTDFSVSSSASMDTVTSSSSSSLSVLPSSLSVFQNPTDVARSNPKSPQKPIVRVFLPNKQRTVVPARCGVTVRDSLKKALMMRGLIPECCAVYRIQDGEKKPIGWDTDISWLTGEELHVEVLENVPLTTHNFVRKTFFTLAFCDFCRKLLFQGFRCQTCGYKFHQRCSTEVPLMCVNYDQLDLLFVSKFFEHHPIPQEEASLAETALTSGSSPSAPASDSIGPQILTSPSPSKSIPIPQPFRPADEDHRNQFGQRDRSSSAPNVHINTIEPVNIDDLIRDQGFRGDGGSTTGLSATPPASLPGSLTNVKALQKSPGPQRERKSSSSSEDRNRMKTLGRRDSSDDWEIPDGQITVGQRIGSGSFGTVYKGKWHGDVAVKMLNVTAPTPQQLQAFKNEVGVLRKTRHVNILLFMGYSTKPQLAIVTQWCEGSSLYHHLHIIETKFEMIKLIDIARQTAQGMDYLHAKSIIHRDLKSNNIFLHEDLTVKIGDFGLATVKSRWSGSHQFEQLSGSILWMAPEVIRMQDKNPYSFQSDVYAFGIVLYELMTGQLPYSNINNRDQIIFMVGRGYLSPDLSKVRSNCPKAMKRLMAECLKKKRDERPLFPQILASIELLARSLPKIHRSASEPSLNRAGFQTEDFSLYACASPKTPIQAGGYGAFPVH

| inhibition [1] | Activity [2] | solubility [3] | Drug uptake [4] | Drug uptake [5] | Drug uptake [6] | Ratio IC50 (Homo sapiens [7]) | Ratio IC50 (Homo sapiens [8]) | SMILES |
| --- | --- | --- | --- | --- | --- | --- | --- | --- |
| inactive | 10% | Insoluble |  |  |  |  |  | O=C(Nc1ccc(Oc2c(Br)cnc3[nH]cnc23)c(F)c1)c1cccn(-c2ccc(F)cc2)c1=O |
| Active | 43% |  | Active | Active | Active |  |  | CC(C)c1nc2c(Oc3ccc(NC(=O)c4cccn(-c5ccc(F)cc5)c4=O)cc3F)ccnc2[nH]1 |
| inactive | 18% |  |  |  |  |  |  | Cc1cnc2[nH]cnc2c1Oc1ccc(NC(=O)c2cccn(-c3ccc(F)cc3)c2=O)cc1F |
| Active | 58% |  |  |  |  | 120 to 900 | 120 to 900 | O=C(Nc1ccc(Oc2ccnc3[nH]cnc23)c(F)c1)c1cccn(-c2ccc(F)cc2)c1=O |
